Data published in patent publication US7173004B2, “Macrocyclic isoquinoline peptide inhibitors of hepatitis C virus” (Bristol-Myers Squibb Company, priority 2003, dated 2007).

Target: T1, HCV NS3/4A protease complex, BMS strain (genotype 1a) (UniProt P27958, C1454S/C1711G, species not given/STRAIN_BMS)
T1 construct: b1001: DNA encoding the recombinant HCV NS3/4A protease complex (amino acids 1027 to 1711) ... a three-lysine solubilizing tail was added at the 3′-end of the NS4A coding region; fused on or other part: Three-lysine solubilising tail at the C-terminus of NS4A; A His tag is implied by the pET21b vector and Ni-NTA purification
Assay: Recombinant HCV NS3/4A protease complex FRET peptide assay, BMS strain
Format: biochemical
Details: NS3/4A BMS strain; activity range symbols
How it was run: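 Recombinant NS3/4A (aa 1027–1711) from H77C, J4L6S or BMS strains, with C1454S and C1711G mutations and three-lysine tail, expressed in E. coli and Ni-NTA/gel-filtration purified to >90%. Inhibition of cleavage of a FRET peptide substrate measured.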

Structure (SMILES)	IC50 [nM]
COc1ccc2c(OC3CC4C(=O)NC5(C(=O)NS(=O)(=O)C6CC6)CC5C=CCOCCCC(NC(=O)N5CCCC5)C(=O)N4C3)nc(-c3ccccc3)cc2c1 (stereo not shown) [Compound 100]	< 50
COc1ccc2c(OC3CC4C(=O)NC5(C(=O)NS(=O)(=O)C6CC6)CC5C=CCOCCCC(NC(=O)OC5CCCC5)C(=O)N4C3)nc(-c3ccccc3)cc2c1 (stereo not shown) [Compound 99]	< 50
COc1ccc2c(OC3CC4C(=O)NC5(C(=O)NS(=O)(=O)C6CC6)CC5C=CCCCCCC(NC(=O)NC(C)(C)C)C(=O)N4C3)nccc2c1 (stereo not shown) [Compound 135]	< 50
COc1ccc2c(OC3CC4C(=O)NC5(C(=O)NS(=O)(=O)C6CC6)CC5C=CCCCOCC(NC(=O)OC(C)C)C(=O)N4C3)nc(-c3ccc(N(C)C)cc3)cc2c1 (stereo not shown) [Compound 109]	< 50
COc1ccc2c(OC3CC4C(=O)NC5(C(=O)NS(=O)(=O)C6CC6)CC5C=CCCCSC(C)(C)C(NC(=O)NC5CCCC5)C(=O)N4C3)nccc2c1 (stereo not shown) [Compound 82]	< 50
COc1ccc2c(OC3CC4C(=O)NC5(C(=O)NS(=O)(=O)C6CC6)CC5C=CCCCOCC(NC(=O)OC5CCCC5)C(=O)N4C3)nccc2c1 (stereo not shown) [Compound 90]	< 50
COc1ccc2c(OC3CC4C(=O)NC5(C(=O)NS(=O)(=O)C6CC6)CC5C=CCCCOCC(NC(=O)OC(C)C)C(=O)N4C3)nc(-c3ccccc3)cc2c1 (stereo not shown) [Compound 96]	< 50
COc1ccc2c(OC3CC4C(=O)NC5(C(=O)NS(=O)(=O)C6CC6)CC5C=CCCCOCC(NC(=O)NC(C)(C)C)C(=O)N4C3)nc(-c3ccc(N(C)C)cc3)cc2c1 (stereo not shown) [Compound 108]	< 50
COc1ccc2c(OC3CC4C(=O)NC5(C(=O)NS(=O)(=O)C6CC6)CC5C=CCOCCCC(NC(=O)Nc5ccc(C#N)cc5)C(=O)N4C3)nc(-c3ccccc3)cc2c1 (stereo not shown) [Compound 105]	< 50
CC(C)(C)OC(=O)N[C@H]1CN(S(C)(=O)=O)CCC/C=C\[C@@H]2C[C@@]2(C(=O)NS(=O)(=O)C2CC2)NC(=O)[C@@H]2C[C@@H](Oc3nccc4ccccc34)CN2C1=O [Compound 153]	< 50
O=C(NC1CCCC1)NC1CCCCCC=CC2CC2(C(=O)NS(=O)(=O)C2CC2)NC(=O)C2CC(Oc3nccc4ccccc34)CN2C1=O (stereo not shown) [Compound 127]	< 50
COc1ccc2c(OC3CC4C(=O)NC5(C(=O)NS(=O)(=O)C6CC6)CC5C=CCCCCCC(NC(=O)OC(C)(C)C)C(=O)N4C3)nccc2c1OC (stereo not shown) [Compound 134]	< 50
COc1ccc2c(OC3CC4C(=O)NC5(C(=O)NS(=O)(=O)C6CC6)CC5C=CCOCCCC(NC(=O)OC(C)(C)C)C(=O)N4C3)nc(-c3ccc(N(C)C=O)cc3)cc2c1 (stereo not shown) [Compound 114]	< 50
COc1ccc2c(OC3CC4C(=O)NC5(C(=O)NS(=O)(=O)C6CC6)CC5C=CCCCSC(C)(C)C(N)C(=O)N4C3)nccc2c1 (stereo not shown) [Compound 83]	500 to 5000
CN1CCC/C=C\[C@@H]2C[C@@]2(C(=O)NS(=O)(=O)C2CC2)NC(=O)[C@@H]2C[C@@H](Oc3nccc4ccccc34)CN2C(=O)[C@@H](NC(=O)OC(C)(C)C)C1 [Compound 147]	< 50
COc1ccc2c(OC3CC4C(=O)NC5(C(=O)NS(=O)(=O)C6CC6)CC5C=CCCCOCC(NC(=O)N5CCCC5)C(=O)N4C3)nc(-c3ccccc3)cc2c1 (stereo not shown) [Compound 93]	< 50
COc1ccc2c(OC3CC4C(=O)NC5(C(=O)NS(=O)(=O)C6CC6)CC5C=CCCCSC(C)(C)C(NC(=O)NC(C)(C)C)C(=O)N4C3)nccc2c1 (stereo not shown) [Compound 81]	< 50
CCC1(S(=O)(=O)NC(=O)C23CC2C=CCCCSCC(NC(=O)OC(C)(C)C)C(=O)N2CC(Oc4nccc5cc(OC)ccc45)CC2C(=O)N3)CC1 (stereo not shown) [Compound 121]	< 50
O=CNC1CCCCCC=CC2CC2(C(=O)NS(=O)(=O)C2CC2)NC(=O)C2CC(Oc3nccc4ccccc34)CN2C1=O (stereo not shown) [Compound 119]	< 50
CC(C)(C)CC(C)(C)NC(=O)NC1CCCCCC=CC2CC2(C(=O)NS(=O)(=O)C2CC2)NC(=O)C2CC(Oc3nccc4ccccc34)CN2C1=O (stereo not shown) [Compound 129]	< 50
COc1ccc2c(OC3CC4C(=O)NC5(C(=O)NS(=O)(=O)C6CC6)CC5C=CCCCOCC(NC(=O)OC(C)C)C(=O)N4C3)nccc2c1 (stereo not shown) [Compound 89]	< 50
COc1ccc2c(OC3CC4C(=O)NC5(C(=O)NS(=O)(=O)C6(C)CC6)CC5C=CCCCSCC(NC(=O)OC(C)(C)C)C(=O)N4C3)nccc2c1 (stereo not shown) [Compound 115]	< 50
CC(C)(C)OC(=O)N[C@H]1CN(S(=O)(=O)c2ccccc2[N+](=O)[O-])CCC/C=C\[C@@H]2C[C@@]2(C(=O)NS(=O)(=O)C2CC2)NC(=O)[C@@H]2C[C@@H](Oc3nccc4ccccc34)CN2C1=O [Compound 145]	< 50

Structure (SMILES)	IC50 [nM]
COc1ccc2c(O[C@@H]3C[C@H]4C(=O)N[C@]5(C(=O)NS(=O)(=O)C6CC6)C[C@H]5/C=C\COCC[C@H](NC(=O)OC(C)(C)C)C(=O)N4C3)nccc2c1 [Compound 141, [(Z)-(1S,4R,13S,17R)-4-cyclopropanesulfonylaminocarbonyl-17-(6-methoxy-isoquinolin-1-yloxy)-2,14-dioxo-10-oxa-3,15-diaza-tricyclo[13.3.0.0^4,6]octadec-7-en-13-yl]-carbamic acid tert-butyl ester]	50 to 500
CNc1ccc(-c2cc3cc(OC)ccc3c(OC3CC4C(=O)NC5(C(=O)NS(=O)(=O)C6CC6)CC5C=CCOCCCC(NC(=O)OC(C)(C)C)C(=O)N4C3)n2)cc1 (stereo not shown) [Compound 113]	< 50
COc1ccc2c(OC3CC4C(=O)NC5(C(=O)NS(=O)(=O)C6CC6)CC5C=CCOCCCC(NC(=O)NC(C)(C)C)C(=O)N4C3)nc(-c3ccccc3)cc2c1 (stereo not shown) [Compound 102]	< 50
COc1ccc2c(OC3CC4C(=O)NC5(C(=O)NS(=O)(=O)C6CC6)CC5C=CCCCOCC(NC(=O)NC5CCCC5)C(=O)N4C3)nccc2c1 (stereo not shown) [Compound 87]	< 50
COc1ccc2c(OC3CC4C(=O)NC5(C(=O)NS(=O)(=O)C6CC6)CC5C=CCCCOCC(NC(=O)OCC(C)(C)C)C(=O)N4C3)nccc2c1 (stereo not shown) [Compound 88]	< 50
CC(C)(C)NC(=O)N1CCC/C=C\[C@@H]2C[C@@]2(C(=O)NS(=O)(=O)C2CC2)NC(=O)[C@@H]2C[C@@H](Oc3nccc4ccccc34)CN2C(=O)[C@@H](NC(=O)OC(C)(C)C)C1 [Compound 150]	< 50
COc1ccc2c(OC3CC4C(=O)NC5(C(=O)NS(=O)(=O)C6CC6)CC5C=CCCCOCC(NC(=O)NC(C)(C)C)C(=O)N4C3)nccc2c1 (stereo not shown) [Compound 86]	< 50
COc1ccc2c(OC3CC4C(=O)NC5(C(=O)NS(=O)(=O)C6CC6)CC5C=CCCCOCC(NC(=O)N5CCCC5)C(=O)N4C3)nc(-c3ccc(N(C)C)cc3)cc2c1 (stereo not shown) [Compound 111]	< 50
CCC(C)(C)OC(=O)NC1CCCCCC=CC2CC2(C(=O)NS(=O)(=O)C2CC2)NC(=O)C2CC(Oc3nccc4ccccc34)CN2C1=O (stereo not shown) [Compound 125]	< 50
CCSC(=O)NC1CCCCCC=CC2CC2(C(=O)NS(=O)(=O)C2CC2)NC(=O)C2CC(Oc3nccc4ccccc34)CN2C1=O (stereo not shown) [Compound 118]	< 50
COc1ccc2c(OC3CC4C(=O)NC5(C(=O)NS(=O)(=O)C6CC6)CC5C=CCCCCCC(NC(=O)NC5CCCC5)C(=O)N4C3)nccc2c1 (stereo not shown) [Compound 136]	< 50
CC(=O)C(C)(C)OC(=O)NC1CCCCCC=CC2CC2(C(=O)NS(=O)(=O)C2CC2)NC(=O)C2CC(Oc3nccc4ccccc34)CN2C1=O (stereo not shown) [Compound 123]	< 50
COc1ccc2c(OC3CC4C(=O)NC5(C(=O)NS(=O)(=O)C6CC6)CC5C=CCCCSCC(N)C(=O)N4C3)nccc2c1 (stereo not shown) [Compound 117]	50 to 500
CC(C)(C)COC(=O)N1CCCC=CC2CC2(C(=O)NS(=O)(=O)C2CC2)NC(=O)C2CC(Oc3nccc4ccccc34)CN2C(=O)C(NC(=O)OC(C)(C)C)C1 (stereo not shown) [Compound 149]	< 50
CC(C)(C)NC(=O)N[C@H]1CCCCC/C=C\[C@@H]2C[C@@]2(C(=O)NS(=O)(=O)C2CC2)NC(=O)[C@@H]2C[C@@H](Oc3nccc4ccccc34)CN2C1=O [Compound 126]	< 50
CC(C)(C)OC(=O)NC1CN(C(=O)C2CC2)CCCC=CC2CC2(C(=O)NS(=O)(=O)C2CC2)NC(=O)C2CC(Oc3nccc4ccccc34)CN2C1=O (stereo not shown) [Compound 152]	< 50
COc1ccc2c(OC3CC4C(=O)NC5(C(=O)NS(=O)(=O)C6CC6)CC5C=CCCCOCC(NC(=O)NC(C)(C)C)C(=O)N4C3)nc(-c3ccccc3)cc2c1 (stereo not shown) [Compound 92]	< 50
COc1ccc2c(OC3CC4C(=O)NC5(C(=O)NS(=O)(=O)C6CC6)CC5C=CCOCCCC(NC(=O)N5CCNC5=O)C(=O)N4C3)nc(-c3ccccc3)cc2c1 (stereo not shown) [Compound 106]	< 50
COc1ccc2c(OC3CC4C(=O)NC5(C(=O)NS(=O)(=O)C6CC6)CC5C=CCOCCCC(NC(=O)OCC(C)(C)C)C(=O)N4C3)nc(-c3ccccc3)cc2c1 (stereo not shown) [Compound 103]	< 50
COc1ccc2c(OC3CC4C(=O)NC5(C(=O)NS(=O)(=O)C6CC6)CC5C=CCCCOCC(NC(=O)OC5CCCC5)C(=O)N4C3)nc(-c3ccc(N(C)C)cc3)cc2c1 (stereo not shown) [Compound 110]	< 50
CC(=O)N1CCC/C=C\[C@@H]2C[C@@]2(C(=O)NS(=O)(=O)C2CC2)NC(=O)[C@@H]2C[C@@H](Oc3nccc4ccccc34)CN2C(=O)[C@@H](NC(=O)OC(C)(C)C)C1 [Compound 146]	< 50
COc1ccc2c(OC3CC4C(=O)NC5(C(=O)NS(=O)(=O)C6CC6)CC5C=CCCCCCC(NC(=O)OC(C)(C)C)C(=O)N4C3)nccc2c1F (stereo not shown) [Compound 132]	< 50
COc1ccc2c(O[C@@H]3C[C@H]4C(=O)N[C@]5(C(=O)NS(=O)(=O)C6CC6)C[C@H]5/C=C\CCCSC(C)(C)[C@H](NC(=O)OC(C)(C)C)C(=O)N4C3)nccc2c1 [Compound 80, (1S,4R,6S,14R,18R)-[7-cis-4-Cyclopropanesulfonylaminocarbonyl-13,13-dimethyl-18-(6-methoxyisoquinolin-1-yloxy)-2,15-dioxo-12-thia-3,16-diaza-tricyclo[14.3.0.0^4,6]nonadec-7-en-14-yl]carbamic acid, tert-butyl ester]	< 50
